The source of these data is patent publication US12139520B2 (priority 2020, dated 2024).

Numbered stars: 1 amine (or outer) side, 2 acyl side, 3 side chain; on linkers, the order of the positions; unused ones are H or OH. Bridge positions count the residues as written; N and C are the ends. Square brackets hold non-standard residues; d marks the D form. Peptide text beside a SMILES is read from it. * marks the point of attachment. C20 diacid = O=C(O)CCCCCCCCCCCCCCCCCCC(=O)*; γGlu = O=C(O)[C@H](CCC(=O)[*:2])N[*:1]; Hyp = O=C(O)[C@@H]1C[C@@H](O)CN1; NMeI = CC[C@H](C)[C@H](NC)C(=O)O; Sar = CNCC(=O)O

In the assay the target is T1, hAMY3 receptor (Homo sapiens, UniProt O60896+P30988).
T1 sequence (P30988 25-474): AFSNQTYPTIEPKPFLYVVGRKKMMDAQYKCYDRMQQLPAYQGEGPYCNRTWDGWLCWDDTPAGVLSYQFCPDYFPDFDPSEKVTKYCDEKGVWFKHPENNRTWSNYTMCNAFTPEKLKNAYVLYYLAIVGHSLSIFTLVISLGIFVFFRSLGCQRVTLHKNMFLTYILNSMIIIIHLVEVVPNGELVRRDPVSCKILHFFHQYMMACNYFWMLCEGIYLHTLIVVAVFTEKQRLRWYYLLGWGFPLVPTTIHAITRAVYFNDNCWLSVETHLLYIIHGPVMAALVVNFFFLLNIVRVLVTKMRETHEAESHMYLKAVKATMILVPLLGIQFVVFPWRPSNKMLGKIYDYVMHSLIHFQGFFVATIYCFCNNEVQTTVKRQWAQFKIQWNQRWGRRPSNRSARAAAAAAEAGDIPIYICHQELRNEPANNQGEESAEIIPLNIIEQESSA
T1 sequence (O60896 24-148 partner): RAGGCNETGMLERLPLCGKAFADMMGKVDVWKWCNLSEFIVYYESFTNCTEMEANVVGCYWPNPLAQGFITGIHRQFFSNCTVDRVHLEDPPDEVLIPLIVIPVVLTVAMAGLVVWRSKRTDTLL
Kind of assay: cAMP assay for in vitro receptor activation, hAMY3-R. Format: cell-based. The following applies: cAMP assay, hAMY3 receptor; read-out: hAMY3R EC50. How it is done:
General Protocols for cAMP Assays for Measuring In Vitro Receptor Activation
Cells stably overexpressing the hAMY3 receptor were obtained from Ogeda (now Astellas Pharma), sub-cloned and a monoclonal cell-line with an appropriate assay-window was expanded, aliquoted and frozen.
An aliquot was thawed and plated in DPBS with 0.05% casein and 0.5 mM IBMX as 2000 cells/well in a 384-well format. The cells were then immediately stimulated for 30 min at room temperature with graded doses of test compound using human amylin (Bachem, cat no. H-7905) as a positive control. cAMP accumulation was measured using a Cisbio assay for Gs coupled receptors (cat. no. 62AM4PEC), where the assay reagents were added as per the manufacturer's instructions and time-resolved fluorescence energy transfer recorded after one hour.
(In general: Cyclic AMP is a second messenger, typically raised through Gs and lowered through Gi signalling.)
Consider `CC(C)C[C@H](NC(=O)[C@H](CCCNC(=N)N)NC(=O)[C@H](CCC(N)=O)NC(=O)[C@@H](NC(=O)[C@@H](NC(=O)[C@@H]1CSSC[C@H](NC(=O)CN)C(=O)N[C@@H](CCCNC(=N)N)C(=O)N[C@@H](Cc2ccccc2)C(=O)NCC(=O)N[C@@H]([C@@H](C)O)C(=O)N1)[C@@H](C)O)C(C)C)C(=O)N[C@@H](C)C(=O)N[C@@H](Cc1c[nH]cn1)C(=O)N[C@@H](Cc1ccccc1)C(=O)N[C@@H](CC(C)C)C(=O)N[C@@H](Cc1ccc(O)cc1)C(=O)N[C@@H](CCC(N)=O)C(=O)N[C@@H](Cc1ccccc1)C(=O)N[C@H](C(=O)N[C@@H](CC(=O)O)C(=O)N[C@@H](CCCCN)C(=O)N[C@@H](CC(=O)O)C(=O)N[C@@H](CCCCN)C(=O)N[C@@H](CC(=O)O)C(=O)N[C@@H](CC(N)=O)C(=O)N[C@H](C(=O)N[C@@H](C)C(=O)N1CCC[C@H]1C(=O)N[C@@H](CCCNC(=N)N)C(=O)N[C@H](C(=O)N[C@@H](CC(N)=O)C(=O)N[C@H](C(=O)NCC(=O)N[C@@H](CO)C(=O)N[C@@H](CC(N)=O)C(=O)N[C@H](C(=O)N[C@@H](Cc1ccc(O)cc1)C(N)=O)[C@@H](C)O)C(C)C)[C@@H](C)O)C(C)C)[C@@H](C)O` [compound 56] (H-GCRFGTCTVQRLAHFLYQFTDKDKDNVAPRTNVGSNTY-NH2; disulfide 2-7; N-terminus assumed), for which the EC50 (usually the concentration giving half of the maximal effect) was determined as 0.012 nM.

For `CC[C@H](C)[C@H](NC(=O)[C@H](CCC(N)=O)NC(=O)[C@H](Cc1c[nH]cn1)NC(=O)[C@H](C)NC(=O)[C@H](CC(C)C)NC(=O)[C@H](CCCNC(=N)N)NC(=O)[C@H](CCC(N)=O)NC(=O)[C@@H](NC(=O)[C@@H](NC(=O)[C@@H]1CSSC[C@H](NC(=O)[C@H](CCCCN)NC(=O)CC[C@H](NC(=O)CCCCCCCCCCCCCCCCCCC(=O)O)C(=O)O)C(=O)N[C@@H](CC(N)=O)C(=O)N[C@@H]([C@@H](C)O)C(=O)N[C@@H](C)C(=O)N[C@@H]([C@@H](C)O)C(=O)N1)[C@@H](C)O)C(C)C)C(=O)N[C@@H](Cc1ccc(O)cc1)C(=O)N[C@@H](CCC(N)=O)C(=O)N[C@@H](Cc1ccccc1)C(=O)N[C@@H](CO)C(=O)N[C@@H](CC(=O)O)C(=O)N[C@@H](CCCCN)C(=O)N[C@@H](CC(=O)O)C(=O)N[C@@H](CCCCN)C(=O)N[C@@H](CC(=O)O)C(=O)N[C@@H](CC(N)=O)C(=O)N[C@H](C(=O)N[C@@H](C)C(=O)N1CCC[C@H]1C(=O)N1CCC[C@H]1C(=O)N[C@H](C(=O)N[C@@H](CC(N)=O)C(=O)N[C@H](C(=O)NCC(=O)N[C@@H](CO)C(=O)N[C@@H](CC(N)=O)C(=O)NCC(=O)N1C[C@H](O)C[C@H]1C(N)=O)C(C)C)[C@@H](C)O)C(C)C` [compound 57] ({C20 diacid-γGlu}-KCNTATCTVQRLAHQIYQFSDKDKDNVAPPTNVGSNG[Hyp]-NH2; disulfide 2-7), the EC50 was determined as 0.012 nM.

For the molecule `CC[C@H](C)[C@H](NC(=O)[C@H](CCC(N)=O)NC(=O)[C@H](Cc1c[nH]cn1)NC(=O)[C@H](C)NC(=O)[C@H](CC(C)C)NC(=O)[C@H](CCCNC(=N)N)NC(=O)[C@H](CCC(N)=O)NC(=O)[C@@H](NC(=O)[C@@H](NC(=O)[C@@H]1CSSC[C@H](NC(=O)[C@H](CCCCN)NC(=O)CC[C@H](NC(=O)CCCCCCCCCCCCCCCCCCC(=O)O)C(=O)O)C(=O)N[C@@H](CC(N)=O)C(=O)N[C@@H](Cc2ccccc2)C(=O)N[C@@H](C)C(=O)N[C@@H]([C@@H](C)O)C(=O)N1)[C@@H](C)O)C(C)C)C(=O)N[C@@H](Cc1ccc(O)cc1)C(=O)N[C@@H](CCC(N)=O)C(=O)N[C@@H](Cc1ccccc1)C(=O)N[C@H](C(=O)N[C@@H](CC(=O)O)C(=O)N[C@@H](CCCCN)C(=O)N[C@@H](CC(=O)O)C(=O)N[C@@H](CCCCN)C(=O)N[C@@H](CC(=O)O)C(=O)N[C@@H](CC(N)=O)C(=O)N[C@H](C(=O)N[C@@H](C)C(=O)N1CCC[C@H]1C(=O)N1CCC[C@H]1C(=O)N[C@H](C(=O)N[C@@H](CCC(=O)O)C(=O)N[C@H](C(=O)NCC(=O)N[C@@H](CO)C(=O)N[C@@H](CC(N)=O)C(=O)NCC(=O)N1C[C@H](O)C[C@H]1C(N)=O)C(C)C)[C@@H](C)O)C(C)C)[C@@H](C)O` [compound 68] ({C20 diacid-γGlu}-KCNFATCTVQRLAHQIYQFTDKDKDNVAPPTEVGSNG[Hyp]-NH2; disulfide 2-7), the concentration giving a half-maximal response (EC50) is 0.013 nM.

For the molecule `CC[C@H](C)[C@@H](C(=O)N[C@@H](CC(C)C)C(=O)N[C@@H](CO)C(=O)N[C@@H](CO)C(=O)N[C@H](C(=O)N[C@@H](CCC(=O)O)C(=O)N[C@H](C(=O)NCC(=O)N[C@@H](CO)C(=O)N[C@@H](CC(N)=O)C(=O)N[C@H](C(=O)N1C[C@H](O)C[C@H]1C(N)=O)[C@@H](C)O)C(C)C)[C@@H](C)O)N(C)C(=O)[C@H](C)NC(=O)CN(C)C(=O)[C@H](Cc1ccccc1)NC(=O)[C@H](CO)NC(=O)[C@H](CO)NC(=O)[C@H](CCCNC(=N)N)NC(=O)[C@H](CCC(N)=O)NC(=O)[C@H](CC(C)C)NC(=O)[C@H](Cc1ccccc1)NC(=O)[C@H](Cc1c[nH]cn1)NC(=O)[C@H](C)NC(=O)[C@H](CC(C)C)NC(=O)[C@H](CCCNC(=N)N)NC(=O)[C@H](CCC(=O)O)NC(=O)[C@@H](NC(=O)[C@H](C)NC(=O)[C@@H]1CSSC[C@H](NC(=O)[C@H](CCCNC(=N)N)NC(=O)CC[C@H](NC(=O)CCCCCCCCCCCCCCCCCCC(=O)O)C(=O)O)C(=O)N[C@@H](CCC(N)=O)C(=O)N[C@@H]([C@@H](C)O)C(=O)N[C@@H](C)C(=O)N[C@@H]([C@@H](C)O)C(=O)N1)[C@@H](C)O` [compound 80] ({C20 diacid-γGlu}-RCQTATCATERLAHFLQRSSF[Sar]A[NMeI]LSSTEVGSNT[Hyp]-NH2; disulfide 2-7), the EC50 was determined as 0.015 nM.

As for `CC[C@H](C)[C@H](NC(=O)[C@H](CCC(N)=O)NC(=O)[C@H](Cc1c[nH]cn1)NC(=O)[C@H](C)NC(=O)[C@H](CC(C)C)NC(=O)[C@H](CCCNC(=N)N)NC(=O)[C@H](CCC(N)=O)NC(=O)[C@@H](NC(=O)[C@@H](NC(=O)[C@@H]1CSSC[C@H](NC(=O)[C@H](CCCCN)NC(=O)CC[C@H](NC(=O)CCCCCCCCCCCCCCCCCCC(=O)O)C(=O)O)C(=O)N[C@@H](CC(N)=O)C(=O)N[C@@H]([C@@H](C)O)C(=O)N[C@@H](C)C(=O)N[C@@H]([C@@H](C)O)C(=O)N1)[C@@H](C)O)C(C)C)C(=O)N[C@@H](Cc1ccc(O)cc1)C(=O)N[C@@H](CCC(N)=O)C(=O)N[C@@H](Cc1ccccc1)C(=O)N[C@H](C(=O)N[C@@H](CC(N)=O)C(=O)N[C@@H](CCCCN)C(=O)N[C@@H](CC(=O)O)C(=O)N[C@@H](CCCCN)C(=O)N[C@@H](CC(=O)O)C(=O)N[C@@H](CC(N)=O)C(=O)N[C@H](C(=O)N[C@@H](C)C(=O)N1CCC[C@H]1C(=O)N1CCC[C@H]1C(=O)N[C@H](C(=O)N[C@@H](CC(N)=O)C(=O)N[C@H](C(=O)NCC(=O)N[C@@H](CO)C(=O)N[C@@H](CC(N)=O)C(=O)NCC(=O)N1C[C@H](O)C[C@H]1C(N)=O)C(C)C)[C@@H](C)O)C(C)C)[C@@H](C)O` [compound 82] ({C20 diacid-γGlu}-KCNTATCTVQRLAHQIYQFTNKDKDNVAPPTNVGSNG[Hyp]-NH2; disulfide 2-7), the half-maximal effective concentration (EC50) is 0.015 nM.

In the case of `CC[C@H](C)[C@H](NC(=O)[C@H](CCC(N)=O)NC(=O)[C@H](Cc1c[nH]cn1)NC(=O)[C@H](C)NC(=O)[C@H](CC(C)C)NC(=O)[C@H](CCCNC(=N)N)NC(=O)[C@H](CCC(N)=O)NC(=O)[C@@H](NC(=O)[C@@H](NC(=O)[C@@H]1CSSC[C@H](NC(=O)[C@H](CCCCN)NC(=O)CC[C@H](NC(=O)CCCCCCCCCCCCCCCCCCC(=O)O)C(=O)O)C(=O)N[C@@H](CC(N)=O)C(=O)N[C@@H]([C@@H](C)O)C(=O)N[C@@H](C)C(=O)N[C@@H]([C@@H](C)O)C(=O)N1)[C@@H](C)O)C(C)C)C(=O)N[C@@H](Cc1ccc(O)cc1)C(=O)N[C@@H](CCC(N)=O)C(=O)N[C@@H](Cc1ccccc1)C(=O)N[C@@H](C)C(=O)N[C@@H](CC(=O)O)C(=O)N[C@@H](CCCCN)C(=O)N[C@@H](CC(=O)O)C(=O)N[C@@H](CCCCN)C(=O)N[C@@H](CC(=O)O)C(=O)N[C@@H](CC(N)=O)C(=O)N[C@H](C(=O)N[C@@H](C)C(=O)N1CCC[C@H]1C(=O)N1CCC[C@H]1C(=O)N[C@H](C(=O)N[C@@H](CC(N)=O)C(=O)N[C@H](C(=O)NCC(=O)N[C@@H](CO)C(=O)N[C@@H](CC(N)=O)C(=O)NCC(=O)N1C[C@H](O)C[C@H]1C(N)=O)C(C)C)[C@@H](C)O)C(C)C` [compound 83] ({C20 diacid-γGlu}-KCNTATCTVQRLAHQIYQFADKDKDNVAPPTNVGSNG[Hyp]-NH2; disulfide 2-7), the half-maximal effective concentration (EC50) amounted to 0.015 nM.
